From patent US20250092383A1, “COMPOUNDS AND METHODS FOR FBXO22-MEDIATED PROTEIN DEGRADATION” (Northwestern University, priority 2023, published 2025)

Legend:
[1] = target: T1, FBXO22 (Homo sapiens, UniProt Q8NEZ5); assay: Competitive cysteine-directed activity-based protein profiling (ABPP); assay type: binding
T1 construct: expressed in transfected cells; host or cells: HEK293T
T1 sequence (Q8NEZ5 1-403): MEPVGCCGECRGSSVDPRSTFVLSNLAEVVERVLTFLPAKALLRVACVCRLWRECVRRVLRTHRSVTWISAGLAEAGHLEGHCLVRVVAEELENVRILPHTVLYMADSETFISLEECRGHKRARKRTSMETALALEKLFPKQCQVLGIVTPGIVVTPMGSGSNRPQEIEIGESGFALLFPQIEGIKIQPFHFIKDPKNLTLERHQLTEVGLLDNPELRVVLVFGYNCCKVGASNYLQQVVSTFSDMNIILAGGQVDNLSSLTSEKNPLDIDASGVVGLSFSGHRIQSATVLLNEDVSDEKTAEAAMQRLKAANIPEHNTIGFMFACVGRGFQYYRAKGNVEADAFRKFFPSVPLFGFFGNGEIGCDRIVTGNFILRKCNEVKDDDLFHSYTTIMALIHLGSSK
Excerpt: (§1) FIGS. 3A-3H show FBXO22 C227 and C228 are involved in 22-SLF-mediated degradation of FKBP12. […] Among 5,650 quantified IA-DTB-modified peptides, four cysteines were identified on FBXO22 (C83, C117, C228, and C365). […] Data are presented as the mean values (n=2 biological independent samples for DMSO treatment; n=3 biological independent samples for 22-SLF Treatment). […] The bag graph represents quantification of the FLAG-FKBP12/HSP90 protein content. Data are presented as mean values (n=2 biological independent samples). […] The bar graph represents quantification of the FLAG-FKBP12/HSP90 protein content. Data are presented as the mean values (n=2 biological independent samples).
To identify the cysteine residue(s) in FBXO22 engaged with 22-SLF, HA-FBXO22-expressing HEK293T cells were treated with either DMSO or 22-SLF (2 μM, 2 hours). Using competitive cysteine-directed activity-based protein profiling (ABPP), a chemical proteomics for the measurement of target engagement, the degree of blockade of iodoacetamide-desthiobiotin (IA-DTB)-modified cysteines on FBXO22 was quantified. From a pool of 5,650 quantified IA-DTB-modified peptides, four cysteines on FBXO22 (C83, C117, C228, and C365) (FIG. 3a) were identified, with approximately 20% of FBXO22 C228 being blocked by 22-SLF treatment (FIG. 3b), indicating the potential interaction with this cysteine by 22-SLF. […]

[2] = target: T2, FKBP12 (Homo sapiens, UniProt P62942); assay: Degradation of endogenous FKBP12 in cancer cell lines, wild type vs FBXO22 knockout; assay type: cell-based
T2 sequence (P62942 whole entry): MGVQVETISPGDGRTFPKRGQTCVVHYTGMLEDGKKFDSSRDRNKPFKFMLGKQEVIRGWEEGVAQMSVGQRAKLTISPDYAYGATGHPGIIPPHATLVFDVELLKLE
Experimental: The bar graph represents quantification of the FLAG-FKBP12/HSP90 protein content. Data are presented as the mean values±s.e.m. […] HEK293T cells expressing HA-FBXO22 were treated with 0.025-15 μM 22-SLF for 8 h. The graph represents quantification of the FLAG-FKBP12/HSP90 protein content. Data are presented as the mean values (n=2 biological independent samples). […] The bar graph represents quantification of the FLAG-FKBP12/HSP90 protein content. KO, knockout; WT, wild type. Data are presented as the mean values (n=2 biological independent samples). […] The bar graph represents quantification of the FLAG-FKBP12/HSP90 protein content. Data are presented as the mean values±s.e.m. […] The result is representative of two independent experiments with similar results. WCL, whole-cell lysate; IP, immunoprecipitate.
Data is obtained from Gene Expression Profiling Interactive Analysis (GEPIA). […] KDM4A and KDM4B are two reported substrates of FBXO22.
As an F-box protein, FBXO22 is a pivotal player in the context of tumor progression. FBXO22 has many oncogenic functions, including propelling the ubiquitination and subsequent degradation of a diverse spectrum of substrates, such as histone lysine demethylase 4 subfamily KDM4A/B, methylated p53, p21, PTEN, KLF4, and LKB1. […]

[3] = target: T2, FKBP12; assay: Global proteomic analysis in HEK293T cells expressing FBXO22 wildtype or C227AC228A; assay type: cell-based; set-up: expressed in transfected cells; host or cells: HEK293T; details: 0.5 μM, 24 hours
Excerpt: as §1
FIGS. 9A-9B show FBXO22 C227 and C228 are involved in 22-SLF-mediated degradation of FKBP12.
Global proteomic analysis in FBXO22 wildtype- and C227AC228A-expressing HEK293T cells was conducted, comparing the effects of 22-SLF treatment on the expression level of FKBP12. […] Using this predicted human FBXO22 structure, a model structure of the interaction with the electrophilic portion of 22-SLF was conducted.

[4] = target: T3, FKBP12 (mouse FBXO22) (UniProt P62942+Q78JE5); assay: FKBP12 degradation in HEK293T cells expressing mouse FBXO22; assay type: cell-based; details: HEK293T cells expressing mouse FBXO22 wildtype
T3 construct: expressed in transfected cells; host or cells: HEK293T
T3 sequence (P62942 2-108): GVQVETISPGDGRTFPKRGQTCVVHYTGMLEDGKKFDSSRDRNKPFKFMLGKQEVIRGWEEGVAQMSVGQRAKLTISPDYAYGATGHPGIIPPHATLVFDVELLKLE
T3 sequence (Q78JE5 whole entry): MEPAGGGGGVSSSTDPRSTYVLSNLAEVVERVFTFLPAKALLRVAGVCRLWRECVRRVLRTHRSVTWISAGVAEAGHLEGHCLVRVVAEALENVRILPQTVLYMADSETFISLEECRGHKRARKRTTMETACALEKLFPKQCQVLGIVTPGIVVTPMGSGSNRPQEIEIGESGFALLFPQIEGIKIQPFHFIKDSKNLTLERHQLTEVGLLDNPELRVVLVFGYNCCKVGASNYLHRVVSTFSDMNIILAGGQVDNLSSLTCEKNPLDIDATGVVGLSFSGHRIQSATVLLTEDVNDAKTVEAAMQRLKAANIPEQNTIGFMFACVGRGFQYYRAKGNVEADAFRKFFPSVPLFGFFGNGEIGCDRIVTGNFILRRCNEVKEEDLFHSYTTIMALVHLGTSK
T3 sequence (P63208 whole entry partner): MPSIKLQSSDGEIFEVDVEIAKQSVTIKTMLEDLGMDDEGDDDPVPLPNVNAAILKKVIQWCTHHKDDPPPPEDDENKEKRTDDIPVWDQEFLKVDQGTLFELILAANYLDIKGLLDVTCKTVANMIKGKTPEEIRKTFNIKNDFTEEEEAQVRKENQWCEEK
Excerpt: as §1
Intriguingly, the peptide sequence containing the two consecutive cysteines (C227 and C228) is identical between human and mouse (FIG. 3f). To explore whether mouse FBXO22 can facilitate 22-SLF-induced FKBP12 degradation and if the conserved cysteines (C226 and C227 in mouse FBXO22) are pivotal, HEK293T cells expressing mouse FBXO22 wildtype, C226A, C227A, and C226AC227A, were generated.

SMILES: CCC(C)(C)C(=O)C(=O)N1CCCC[C@H]1C(=O)O[C@H](CCc1ccc(OC)c(OC)c1)c1cccc(OCC(=O)NCCCOCCOCCOCCCN(C(=O)CCl)C(C(=O)NCc2ccccc2)c2nc3ccccc3s2)c1 (stereo partly shown) [22-SLF]
- Blockade of IA-DTB-modified FBXO22 C228 ([1]; 2 μM, 2 hours, HA-FBXO22-expressing HEK293T cells): approximately 20%
- Engagement of FBXO22 C227 ([1]; FIG. 3b): approximately 20%
- Degradation of endogenous FKBP12, wild-type cells ([2]; A549, MDA-MB-231 and PC3, 2 μM in A549): promoted degradation of endogenous FKBP12
- Degradation of endogenous FKBP12, FBXO22 knockout cells ([2]; A549, MDA-MB-231 and PC3 FBXO22 knockout): abolished upon FBXO22 knockout
- FKBP12 degradation in global proteomics, FBXO22 C227AC228A cells ([3]; HEK293T HA-FBXO22 C227AC228A): no degradation observed
- Proteins degraded among 7,936 quantified proteins, FBXO22 wildtype cells ([3]; HEK293T HA-FBXO22 wildtype): FKBP12 was the only protein degraded
- FKBP12 degradation, mouse FBXO22 wildtype [4]: induced FBKP12 degradation
